Key:
papillomas = experiment: papilloma test (tumors induced with dimethyl-benzanthracene and croton oil); type: in vivo; conditions: mice, intraperitoneal, 400 mg/kg/week, within 2 weeks
Protocol: The polyene compounds of formula I are useful in the topical and systemic prophylaxis and treatment of benign and malignant neoplasias and premalignant lesions. The tumor-inhibiting activity of the polyene compounds of the invention is significant. […] The diameter of such papillomas in mice decreased by 54% within 2 weeks upon the intraperitoneal administration of 3,7-dimethyl-9-(4-methoxy-2,3,6-trimethyl-phenyl)-nona-2,4,6-trien-1-oic acid at a dosage of 400 mg/kg/week.

[1] = acute toxicity in mice after intraperitoneal administration in rape oil; conditions: mouse, in vivo, ip

## COc1cc(C)c(CC/C(C)=C/C=C/C(C)=C/C(=O)O)c(C)c1C [3,7-dimethyl-9-(4-methoxy-2,3,6-trimethyl-phenyl)-nona-2,4,6-trien-1-oic acid]
papillomas
  decrease in diameter of papillomas: 54%
[1]
  LD50: 1400 mg/kg
  LD50 at 24 h: > 4000 mg/kg
  LD50 at 240 h: 1400 mg/kg
  LD50 at 480 h: 1400 mg/kg
